Assay results published in patent US20050197350A1, “Novel quinoline, tetrahydroquinazoline, and pyrimidine derivatives and methods of treatment related to the use thereof” (TAISHO PHARMACEUTICAL CO., LTD., priority 2003, published 2005).

These molecules were tested on MCH receptors (assay: MCH receptor activity class (method not given)). Conditions: class by percent of control at 10^−7 M or IC50.

Row | Compound | class
1 | Cc1cnc(N[C@H]2CC[C@@H](NC(=O)COc3cccc(Cl)c3)CC2)nc1N(C)C [compound 2879, 2-(3-chlorophenoxy)-N-(cis-4-{[4-(dimethylamino)-5-methylpyrimidin-2-yl]amino}cyclohexyl)acetamide] | 1 (Class 1: The value of percent of control at 10^−7 M was less than 40% or the value of IC50 was less than 50 nM.)
2 | Cc1cccc(Oc2ncccc2C(=O)N[C@H]2CC[C@@H](Nc3ncc(C)c(N(C)C)n3)CC2)c1 [compound 2885, N-(cis-4-{[4-(dimethylamino)-5-methylpyrimidin-2-yl]amino}cyclohexyl)-2-(3-methylphenoxy)nicotinamide] | 1 (Class 1: The value of percent of control at 10^−7 M was less than 40% or the value of IC50 was less than 50 nM.)
3 | Cc1cnc(N[C@H]2CC[C@@H](NC(=O)c3cccnc3Oc3cccc(F)c3)CC2)nc1N(C)C [compound 2886, N-(cis-4-{[4-(dimethylamino)-5-methylpyrimidin-2-yl]amino}cyclohexyl)-2-(3-fluorophenoxy)nicotinamide] | 1 (Class 1: The value of percent of control at 10^−7 M was less than 40% or the value of IC50 was less than 50 nM.)
4 | COc1cccc(Oc2ncccc2C(=O)N[C@H]2CC[C@@H](Nc3ncc(C)c(N(C)C)n3)CC2)c1 [compound 2887, N-(cis-4-{[4-(dimethylamino)-5-methylpyrimidin-2-yl]amino}cyclohexyl)-2-(3-methoxyphenoxy)nicotinamide] | 1 (Class 1: The value of percent of control at 10^−7 M was less than 40% or the value of IC50 was less than 50 nM.)
5 | COc1ccc(Oc2ncccc2C(=O)N[C@H]2CC[C@@H](Nc3ncc(C)c(N(C)C)n3)CC2)cc1 [compound 2888, N-(cis-4-{[4-(dimethylamino)-5-methylpyrimidin-2-yl]amino}cyclohexyl)-2-(4-methoxyphenoxy)nicotinamide] | 1 (Class 1: The value of percent of control at 10^−7 M was less than 40% or the value of IC50 was less than 50 nM.)
6 | Cc1cnc(N[C@H]2CC[C@@H](NC(=O)c3cccnc3Oc3ccc(I)cc3)CC2)nc1N(C)C [compound 2889, N-(cis-4-{[4-(dimethylamino)-5-methylpyrimidin-2-yl]amino}cyclohexyl)-2-(4-iodophenoxy)nicotinamide] | 1 (Class 1: The value of percent of control at 10^−7 M was less than 40% or the value of IC50 was less than 50 nM.)
7 | COc1ccccc1Oc1ncccc1C(=O)N[C@H]1CC[C@@H](Nc2ncc(C)c(N(C)C)n2)CC1 [compound 2890, N-(cis-4-{[4-(dimethylamino)-5-methylpyrimidin-2-yl]amino}cyclohexyl)-2-(2-methoxyphenoxy)nicotinamide] | 1 (Class 1: The value of percent of control at 10^−7 M was less than 40% or the value of IC50 was less than 50 nM.)
8 | Cc1cnc(N[C@H]2CC[C@@H](NC(=O)c3cccnc3Oc3ccccc3F)CC2)nc1N(C)C [compound 2891, N-(cis-4-{[4-(dimethylamino)-5-methylpyrimidin-2-yl]amino}cyclohexyl)-2-(2-fluorophenoxy)nicotinamide] | 1 (Class 1: The value of percent of control at 10^−7 M was less than 40% or the value of IC50 was less than 50 nM.)
9 | Cc1cnc(N[C@H]2CC[C@@H](NC(=O)c3cccnc3Oc3ccccc3Cl)CC2)nc1N(C)C [compound 2892, 2-(2-chlorophenoxy)-N-(cis-4-{[4-(dimethylamino)-5-methylpyrimidin-2-yl]amino}cyclohexyl)nicotinamide] | 1 (Class 1: The value of percent of control at 10^−7 M was less than 40% or the value of IC50 was less than 50 nM.)
10 | Cc1cnc(N[C@H]2CC[C@@H](NC(=O)c3cccnc3Oc3cccc(Cl)c3)CC2)nc1N(C)C [compound 2893, 2-(3-chlorophenoxy)-N-(cis-4-{[4-(dimethylamino)-5-methylpyrimidin-2-yl]amino}cyclohexyl)nicotinamide] | 1 (Class 1: The value of percent of control at 10^−7 M was less than 40% or the value of IC50 was less than 50 nM.)
11 | Cc1cnc(N[C@H]2CC[C@@H](NC(=O)c3cccnc3Oc3cccc(Br)c3)CC2)nc1N(C)C [compound 2894, 2-(3-bromophenoxy)-N-(cis-4-{[4-(dimethylamino)-5-methylpyrimidin-2-yl]amino}cyclohexyl)nicotinamide] | 1 (Class 1: The value of percent of control at 10^−7 M was less than 40% or the value of IC50 was less than 50 nM.)
12 | Cc1cnc(N[C@H]2CC[C@@H](NC(=O)c3cccnc3Oc3cccc(C(F)(F)F)c3)CC2)nc1N(C)C [compound 2895] | 1 (Class 1: The value of percent of control at 10^−7 M was less than 40% or the value of IC50 was less than 50 nM.)
13 | Cc1cnc(N[C@H]2CC[C@@H](NC(=O)c3cccc(C(F)(F)F)c3)CC2)nc1N(C)C [compound 2896, N-(cis-4-{[4-(dimethylamino)-5-methylpyrimidin-2-yl]amino}cyclohexyl)-3-(trifluoromethyl)benzamide] | 1 (Class 1: The value of percent of control at 10^−7 M was less than 40% or the value of IC50 was less than 50 nM.)
14 | Cc1cnc(N[C@H]2CC[C@@H](NC(=O)c3cccc(F)c3)CC2)nc1N(C)C [compound 2897, N-(cis-4-{[4-(dimethylamino)-5-methylpyrimidin-2-yl]amino}cyclohexyl)-3-fluorobenzamide] | 1 (Class 1: The value of percent of control at 10^−7 M was less than 40% or the value of IC50 was less than 50 nM.)
15 | Cc1cnc(N[C@H]2CC[C@@H](NC(=O)c3cccc(Br)c3)CC2)nc1N(C)C [compound 2898, 3-bromo-N-(cis-4-{[4-(dimethylamino)-5-methylpyrimidin-2-yl]amino}cyclohexyl)benzamide] | 1 (Class 1: The value of percent of control at 10^−7 M was less than 40% or the value of IC50 was less than 50 nM.)
16 | Cc1cnc(N[C@H]2CC[C@@H](NC(=O)c3ccc(F)cc3)CC2)nc1N(C)C [compound 2899, N-(cis-4-{[4-(dimethylamino)-5-methylpyrimidin-2-yl]amino}cyclohexyl)-4-fluorobenzamide] | 1 (Class 1: The value of percent of control at 10^−7 M was less than 40% or the value of IC50 was less than 50 nM.)
17 | COc1cc(OC)cc(C(=O)N[C@H]2CC[C@@H](Nc3ncc(C)c(N(C)C)n3)CC2)c1 [compound 2900, N-(cis-4-{[4-(dimethylamino)-5-methylpyrimidin-2-yl]amino}cyclohexyl)-3,5-dimethoxybenzamide] | 1 (Class 1: The value of percent of control at 10^−7 M was less than 40% or the value of IC50 was less than 50 nM.)
18 | Cc1cnc(N[C@H]2CC[C@@H](NC(=O)c3ccc(F)cc3F)CC2)nc1N(C)C [compound 2901, N-(cis-4-{[4-(dimethylamino)-5-methylpyrimidin-2-yl]amino}cyclohexyl)-2,4-difluorobenzamide] | 1 (Class 1: The value of percent of control at 10^−7 M was less than 40% or the value of IC50 was less than 50 nM.)
19 | Cc1cnc(N[C@H]2CC[C@@H](NC(=O)c3cc(F)ccc3F)CC2)nc1N(C)C [compound 2902, N-(cis-4-{[4-(dimethylamino)-5-methylpyrimidin-2-yl]amino}cyclohexyl)-2,5-difluorobenzamide] | 1 (Class 1: The value of percent of control at 10^−7 M was less than 40% or the value of IC50 was less than 50 nM.)
20 | Cc1cnc(N[C@H]2CC[C@@H](NC(=O)c3ccc(F)c(F)c3F)CC2)nc1N(C)C [compound 2903, N-(cis-4-{[4-(dimethylamino)-5-methylpyrimidin-2-yl]amino}cyclohexyl)-2,3,4-trifluorobenzamide] | 1 (Class 1: The value of percent of control at 10^−7 M was less than 40% or the value of IC50 was less than 50 nM.)
21 | Cc1cnc(N[C@H]2CC[C@@H](NC(=O)c3ccccc3)CC2)nc1N(C)C [compound 2904, N-(cis-4-{[4-(dimethylamino)-5-methylpyrimidin-2-yl]amino}cyclohexyl)benzamide] | 2 (Class 2: The value of percent of control at 10^−7 M was from 40% to 60% or the value of IC′50 was from 50 nM to 200 nM.)
22 | Cc1cnc(N[C@H]2CC[C@@H](NC(=O)c3ccc(C(C)(C)C)cc3)CC2)nc1N(C)C [compound 2905] | 1 (Class 1: The value of percent of control at 10^−7 M was less than 40% or the value of IC50 was less than 50 nM.)
23 | Cc1cnc(N[C@H]2CC[C@@H](NC(=O)c3ccc(Cl)cc3)CC2)nc1N(C)C [compound 2907, 4-chloro-N-(cis-4-{[4-(dimethylamino)-5-methylpyrimidin-2-yl]amino}cyclohexyl)benzamide] | 1 (Class 1: The value of percent of control at 10^−7 M was less than 40% or the value of IC50 was less than 50 nM.)
24 | Cc1cnc(N[C@H]2CC[C@@H](NC(=O)c3cccc(C#N)c3)CC2)nc1N(C)C [compound 2908, 3-cyano-N-(cis-4-{[4-(dimethylamino)-5-methylpyrimidin-2-yl]amino}cyclohexyl)benzamide] | 1 (Class 1: The value of percent of control at 10^−7 M was less than 40% or the value of IC50 was less than 50 nM.)
25 | Cc1cnc(N[C@H]2CC[C@@H](NC(=O)c3ccc(C#N)cc3)CC2)nc1N(C)C [compound 2909, 4-cyano-N-(cis-4-{[4-(dimethylamino)-5-methylpyrimidin-2-yl]amino}cyclohexyl)benzamide] | 1 (Class 1: The value of percent of control at 10^−7 M was less than 40% or the value of IC50 was less than 50 nM.)
26 | COc1ccccc1C(=O)N[C@H]1CC[C@@H](Nc2ncc(C)c(N(C)C)n2)CC1 [compound 2910] | 3 (Class 3 The value of percent of control at 10^−7 M was more than 60% or the value of IC50 was more than 200 nM.)
27 | Cc1cnc(N[C@H]2CC[C@@H](NC(=O)c3ccc(Br)cc3)CC2)nc1N(C)C [compound 2911, 4-bromo-N-(cis-4-{[4-(dimethylamino)-5-methylpyrimidin-2-yl]amino}cyclohexyl)benzamide] | 1 (Class 1: The value of percent of control at 10^−7 M was less than 40% or the value of IC50 was less than 50 nM.)
28 | Cc1cnc(N[C@H]2CC[C@@H](NC(=O)c3ccc(C(F)(F)F)cc3)CC2)nc1N(C)C [compound 2912, N-(cis-4-{[4-(dimethylamino)-5-methylpyrimidin-2-yl]amino}cyclohexyl)-4-(trifluoromethyl)benzamide] | 1 (Class 1: The value of percent of control at 10^−7 M was less than 40% or the value of IC50 was less than 50 nM.)
